Measured values as given in US20230279001A1, “IMIDAZO[1,2-A]PYRIDINE COMPOUNDS FOR THE TREATMENT OF AUTOIMMUNE DISEASE” (Hoffmann-La Roche Inc., priority 2020, published 2023).

How the values were obtained:
human TLR7 = human TLR7 (Homo sapiens (Human), UniProt Q9NYK1); assay: HEK293-Blue-hTLR-7 cells assay; format: cell-based; conditions: HEK293-Blue-hTLR7 cells, R848 stimulation, 20 hrs, SEAP reporter; read-out: HEK/hTLR7 IC50
Excerpt: (§1) A stable HEK293-Blue-hTLR-7 cell line was purchased from InvivoGen (Cat. #: hkb-htlr7, San Diego, Calif., USA). These cells were originally designed for studying the stimulation of human TLR7 by monitoring the activation of NF-κB. A SEAP (secreted embryonic alkaline phosphatase) reporter gene was placed under the control of the IFN-β minimal promoter fused to five NF-κB and AP-1-binding sites. The SEAP was induced by activating NF-κB and AP-1 via stimulating HEK-Blue hTLR7 cells with TLR7 ligands. Therefore the reporter expression was declined by TLR7 antagonist under the stimulation of a ligand, such as R848 (Resiquimod), for incubation of 20 hrs. The cell culture supernatant SEAP reporter activity was determined using QUANTI-Blue™ kit (Cat. #: rep-qb1, Invivogen, San Diego, Ca, USA) at a wavelength of 640 nm, a detection medium that turns purple or blue in the presence of alkaline phosphatase.
(§2) HEK293-Blue-hTLR7 cells were incubated at a density of 250,000˜450,000 cells/mL in a volume of 170 μL in a 96-well plate in Dulbecco's Modified Eagle's medium (DMEM) containing 4.5 g/L glucose, 50 U/mL penicillin, […], […], 2 mM L-glutamine, 10% (v/v) heat-inactivated fetal bovine serum with addition of 20 μL test compound in a serial dilution in the presence of final DMSO at 1% and 10 μL of 20 uM R848 in above DMEM, perform incubation under 37° C. in a CO2 incubator for 20 hrs. Then 20 μL of the supernatant from each well was incubated with 180 μL Quanti-blue substrate solution at 37° C. for 2 hrs and the absorbance was read at 620-655 nm using a spectrophotometer. The signaling pathway that TLR7 activation leads to downstream NF-κB activation has been widely accepted, and therefore similar reporter assay was modified for evaluating TLR7 antagonist.

human TLR8 = human TLR8 (Homo sapiens (Human), UniProt Q9NR97); assay: HEK293-Blue-hTLR-8 cells assay; format: cell-based; conditions: HEK293-Blue-hTLR8 cells, R848 stimulation, 20 hrs, SEAP reporter; read-out: HEK/hTLR8 IC50
Sequence of human TLR8 (Q9NR97 27-1041): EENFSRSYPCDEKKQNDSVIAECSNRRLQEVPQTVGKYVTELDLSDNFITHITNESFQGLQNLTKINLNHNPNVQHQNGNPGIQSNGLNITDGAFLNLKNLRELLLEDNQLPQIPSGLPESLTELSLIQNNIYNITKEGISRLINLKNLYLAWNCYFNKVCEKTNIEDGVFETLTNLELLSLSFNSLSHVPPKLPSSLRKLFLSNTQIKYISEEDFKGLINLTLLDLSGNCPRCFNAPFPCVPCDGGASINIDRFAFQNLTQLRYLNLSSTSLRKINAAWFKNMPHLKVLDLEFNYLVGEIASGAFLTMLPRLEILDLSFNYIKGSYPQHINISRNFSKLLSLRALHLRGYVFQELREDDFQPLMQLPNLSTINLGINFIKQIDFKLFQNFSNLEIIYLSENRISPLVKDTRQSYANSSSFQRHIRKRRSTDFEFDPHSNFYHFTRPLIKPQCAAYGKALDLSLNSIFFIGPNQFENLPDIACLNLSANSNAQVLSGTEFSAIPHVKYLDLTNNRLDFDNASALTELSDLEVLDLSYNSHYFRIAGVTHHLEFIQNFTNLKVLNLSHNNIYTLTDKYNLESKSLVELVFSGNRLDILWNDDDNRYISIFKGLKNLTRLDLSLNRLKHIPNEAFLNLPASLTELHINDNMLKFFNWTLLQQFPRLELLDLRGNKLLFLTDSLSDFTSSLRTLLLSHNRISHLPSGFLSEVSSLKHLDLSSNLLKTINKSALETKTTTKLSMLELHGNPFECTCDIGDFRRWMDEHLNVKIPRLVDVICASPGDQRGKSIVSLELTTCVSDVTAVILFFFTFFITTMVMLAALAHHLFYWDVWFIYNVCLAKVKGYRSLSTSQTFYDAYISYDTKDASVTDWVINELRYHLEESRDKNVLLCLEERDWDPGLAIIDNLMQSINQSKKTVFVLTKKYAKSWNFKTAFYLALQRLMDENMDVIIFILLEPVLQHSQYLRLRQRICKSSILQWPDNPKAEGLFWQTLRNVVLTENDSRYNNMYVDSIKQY
Excerpt: as §1, with “HEK293-Blue-hTLR-8” for “HEK293-Blue-hTLR-7”, “hkb-htlr8,” for “hkb-htlr7,”, “TLR8” for “TLR7”, “hTLR8” for “hTLR7”, “R848,” for “R848 (Resiquimod),”, “rep-gb1,” for “rep-qb1,”
as §2, with “HEK293-Blue-hTLR8 cells were” for “HEK293-Blue-hTLR7 cells were”, “μL of 60 uM R848” for “μL of 20 uM R848”, “read at 620655 nm using” for “read at 620-655 nm using”, “pathway that TLR8 activation leads” for “pathway that TLR7 activation leads”, “for evaluating TLR8 antagonist.” for “for evaluating TLR7 antagonist.”

TLR9 = TLR9 (Homo sapiens (Human), UniProt Q9NR96); assay: HEK293-Blue-hTLR-9 cells assay; format: cell-based; conditions: HEK293-Blue-hTLR9 cells, ODN2006 stimulation, 20 hrs, SEAP reporter; read-out: HEK/hTLR9 IC50
Sequence of TLR9 (Q9NR96 26-1032): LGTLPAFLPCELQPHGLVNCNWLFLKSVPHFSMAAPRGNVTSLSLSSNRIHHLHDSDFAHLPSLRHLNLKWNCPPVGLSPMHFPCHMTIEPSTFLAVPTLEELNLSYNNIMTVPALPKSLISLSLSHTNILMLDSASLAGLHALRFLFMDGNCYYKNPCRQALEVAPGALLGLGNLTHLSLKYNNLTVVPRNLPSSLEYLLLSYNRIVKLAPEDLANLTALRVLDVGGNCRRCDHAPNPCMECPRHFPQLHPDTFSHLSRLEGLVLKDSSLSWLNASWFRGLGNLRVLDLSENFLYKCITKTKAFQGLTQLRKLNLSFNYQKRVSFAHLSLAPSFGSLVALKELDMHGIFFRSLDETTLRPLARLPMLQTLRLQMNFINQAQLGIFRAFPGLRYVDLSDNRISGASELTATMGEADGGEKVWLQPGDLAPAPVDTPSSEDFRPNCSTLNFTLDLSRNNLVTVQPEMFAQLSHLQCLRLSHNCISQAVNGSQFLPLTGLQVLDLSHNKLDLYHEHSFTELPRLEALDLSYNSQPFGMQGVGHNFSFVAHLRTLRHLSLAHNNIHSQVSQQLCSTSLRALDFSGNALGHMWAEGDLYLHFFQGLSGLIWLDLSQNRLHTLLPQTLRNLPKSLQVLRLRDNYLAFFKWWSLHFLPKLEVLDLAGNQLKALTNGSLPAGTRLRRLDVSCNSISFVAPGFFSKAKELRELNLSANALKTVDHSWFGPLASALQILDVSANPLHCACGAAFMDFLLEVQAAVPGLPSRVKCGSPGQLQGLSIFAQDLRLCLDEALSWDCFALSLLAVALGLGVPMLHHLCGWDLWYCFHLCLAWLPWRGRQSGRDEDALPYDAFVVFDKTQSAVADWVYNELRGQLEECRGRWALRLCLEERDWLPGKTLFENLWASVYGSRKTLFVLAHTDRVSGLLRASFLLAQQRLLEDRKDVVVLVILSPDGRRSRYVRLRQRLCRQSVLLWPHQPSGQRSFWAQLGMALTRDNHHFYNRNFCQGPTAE
Excerpt: as §1, with “HEK293-Blue-hTLR-9” for “HEK293-Blue-hTLR-7”, “hkb-htlr9,” for “hkb-htlr7,”, “TLR9” for “TLR7”, “hTLR9” for “hTLR7”, “ODN2006 (Cat. #: tlr1-2006-1, Invivogen, San Diego, Calif., USA),” for “R848 (Resiquimod),”, “Calif.,” for “Ca,”
HEK293-Blue-hTLR9 cells were incubated at a density of 250,000˜450,000 cells/mL in a volume of 170 μL in a 96-well plate in Dulbecco's Modified Eagle's medium (DMEM) containing 4.5 g/L glucose, 50 U/mL penicillin, […], 2 mM L-glutamine, 10% (v/v) heat-inactivated fetal bovine serum with addition of 20 μL test compound in a serial dilution in the presence of final DMSO at 1% and 10 μL, of 20 uM ODN2006 in above DMEM, perform incubation under 37° C. in a CO2 incubator for 20 hrs. Then 20 μL of the supernatant from each well was incubated with 180 μL, Quanti-blue substrate solution at 37° C. for 2 h and the absorbance was read at 620655 nm using a spectrophotometer. The signaling pathway that TLR9 activation leads to downstream NF-κB activation has been widely accepted, and therefore similar reporter assay was modified for evaluating TLR9 antagonist.

[1] = Human microsome stability assay; format: in vitro ADME; conditions: human liver microsomes, 1 μM test compound, 37° C., NADPH regenerating system
Protocol: The human microsomal stability assay is used for early assessment of metabolic stability of a test compound in human liver microsomes.
Human liver microsomes (Cat. NO.: 452117, Corning, USA; Cat. NO.: H2610, Xenotech, USA) were preincubated with test compound for 10 minutes at 37° C. in 100 mM potassium phosphate buffer, pH 7.4. The reactions were initiated by adding NADPH regenerating system. The final incubation mixtures contained 1 μM test compound, 0.5 mg/mL liver microsomal protein, 1 mM MgCl2, 1 mM NADP, 1 unit/mL isocitric dehydrogenase and 6 mM isocitric acid in 100 mM potassium phosphate buffer, pH 7.4. After incubation times of 0, 3, 6, 9, 15 and 30 minutes at 37° C., 300 μL of cold acetonitrile (including internal standard) was added to 100 μL incubation mixture to terminate the reaction. Following precipitation and centrifugation, the amount of compound remaining in the samples were determined by LC-MS/MS. Controls of no NADPH regenerating system at zero and 30 minutes were also prepared and analyzed.

Sequence of human TLR7 (Q9NYK1 27-1049): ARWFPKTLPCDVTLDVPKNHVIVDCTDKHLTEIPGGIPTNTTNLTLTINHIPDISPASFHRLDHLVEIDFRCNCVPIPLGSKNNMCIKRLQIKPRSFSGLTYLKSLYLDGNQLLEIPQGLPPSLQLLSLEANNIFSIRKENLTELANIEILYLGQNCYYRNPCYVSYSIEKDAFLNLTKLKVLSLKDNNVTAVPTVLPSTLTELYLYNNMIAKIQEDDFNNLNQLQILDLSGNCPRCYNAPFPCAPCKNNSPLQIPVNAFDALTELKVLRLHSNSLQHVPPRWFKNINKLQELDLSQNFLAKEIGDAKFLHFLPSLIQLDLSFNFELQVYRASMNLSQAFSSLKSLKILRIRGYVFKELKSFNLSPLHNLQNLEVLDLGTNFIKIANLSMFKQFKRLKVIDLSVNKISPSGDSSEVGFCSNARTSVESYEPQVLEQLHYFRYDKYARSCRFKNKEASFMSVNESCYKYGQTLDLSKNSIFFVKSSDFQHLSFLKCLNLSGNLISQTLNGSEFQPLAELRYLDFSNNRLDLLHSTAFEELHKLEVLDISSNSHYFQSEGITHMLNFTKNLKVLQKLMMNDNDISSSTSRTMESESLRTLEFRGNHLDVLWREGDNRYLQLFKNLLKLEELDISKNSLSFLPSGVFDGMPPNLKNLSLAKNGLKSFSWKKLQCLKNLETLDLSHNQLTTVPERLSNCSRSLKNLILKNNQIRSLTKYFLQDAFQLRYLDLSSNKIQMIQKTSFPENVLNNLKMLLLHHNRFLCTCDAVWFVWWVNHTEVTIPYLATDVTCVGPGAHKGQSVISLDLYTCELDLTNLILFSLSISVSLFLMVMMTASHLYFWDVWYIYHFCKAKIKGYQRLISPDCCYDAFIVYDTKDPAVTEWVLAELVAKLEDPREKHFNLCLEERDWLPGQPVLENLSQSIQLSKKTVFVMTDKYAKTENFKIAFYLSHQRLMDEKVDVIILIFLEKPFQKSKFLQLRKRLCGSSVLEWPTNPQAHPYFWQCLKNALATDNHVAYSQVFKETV

SMILES: CCc1nc(N2CCC(N3CC4(CNCCO4)C3)CC2)ncc1-c1cc(C)c2nccn2c1 [Example 28, 2-[1-[4-ethyl-5-(8-methylimidazo[1,2-a]pyridin-6-yl)pyrimidin-2-yl]-4-piperidyl]-5-oxa-2,8-diazaspiro[3.5]nonane]
- IC50 (human TLR7): 15.3 nM
- IC50 (human TLR8): 1.3 nM
- IC50 (TLR9): 159 nM

SMILES: COc1cc(-c2ccc(N3CCC4(CCNCC4)CC3)nc2C(F)F)cn2ccnc12 [Example 13, 3-[6-(difluoromethyl)-5-(8-methoxyimidazo[1,2-a]pyridin-6-yl)-2-pyridyl]-3,9-diazaspiro[5.5]undecane]
- IC50 (human TLR7): 7.4 nM
- IC50 (human TLR8): 28.4 nM
- IC50 (TLR9): 293 nM
- Clearance of Human microsome [1]: 9.16 mL/min/kg

SMILES: Cc1cn2cc(-c3ccc(N4CCC5(CC4)COCCN5)nc3C(C)C)cc(C)c2n1 [Example 6, 9-[5-(2,8-dimethylimidazo[1,2-a]pyridin-6-yl)-6-isopropyl-2-pyridyl]-4-oxa-1,9-diazaspiro[5.5]undecane]
- IC50 (human TLR7): 13.6 nM
- IC50 (human TLR8): 27 nM
- IC50 (TLR9): 269 nM

SMILES: CCc1nc(N2CCC(N3CCNCC3)CC2)ncc1-c1cc(C)c2nccn2c1 [Example 27, 6-[4-ethyl-2-(4-piperazin-1-yl-1-piperidyl)pyrimidin-5-yl]-8-methyl-imidazo[1,2-a]pyridine]
- IC50 (human TLR7): 3.3 nM
- IC50 (human TLR8): 4.6 nM
- IC50 (TLR9): 259 nM
- Clearance of Human microsome [1]: 7.75 mL/min/kg

SMILES: Cc1cc(-c2ccc(N3CCC(N)CC3)nc2C(C)C)cn2ccnc12 [Example 1, 1-[6-isopropyl-5-(8-methylimidazo[1,2-a]pyridin-6-yl)-2-pyridyl]piperidin-4-amine]
- IC50 (human TLR7): 1.4 nM
- IC50 (human TLR8): 1.3 nM
- IC50 (TLR9): 292 nM
- Clearance of Human microsome [1]: 9.06 mL/min/kg

SMILES: Cc1cc(-c2ccc(N3CCC(N4CCNCC4)CC3)nc2N(C)C)cn2ccnc12 [Example 23, N,N-dimethyl-3-(8-methylimidazo[1,2-a]pyridin-6-yl)-6-(4-piperazin-1-yl-1-piperidyl)pyridin-2-amine]
- IC50 (human TLR7): 6.4 nM
- IC50 (human TLR8): 8.1 nM
- IC50 (TLR9): 118 nM

SMILES: CCc1nc(N2CCN(c3ncc4c(n3)CNCC4)CC2)ccc1-c1cc(C)c2nc(C)cn2c1 [Example 19, 2-[4-[5-(2,8-dimethylimidazo[1,2-a]pyridin-6-yl)-6-ethyl-2-pyridyl]piperazin-1-yl]-5,6,7,8-tetrahydropyrido[3,4-d]pyrimidine]
- IC50 (human TLR7): 43.5 nM
- IC50 (human TLR8): 1.3 nM
- IC50 (TLR9): 131 nM

SMILES: CCc1nc(N2CCC(N3C[C@@H](N)[C@H](OC)C3)CC2)ncc1-c1cc(C)c2nccn2c1 [Example 26, (3R,4R)-1-[1-[4-ethyl-5-(8-methylimidazo[1,2-a]pyridin-6-yl)pyrimidin-2-yl]-4-piperidyl]-4-methoxy-pyrrolidin-3-amine]
- IC50 (human TLR7): 7.4 nM
- IC50 (human TLR8): 1 nM
- IC50 (TLR9): 229 nM
- Clearance of Human microsome [1]: 8.69 mL/min/kg

SMILES: CCc1nc(N2CCC(N3CC4(CNCCO4)C3)CC2)ccc1-c1cc(C)c2nc(C)cn2c1 [Example 16, 2-[1-[5-(2,8-dimethylimidazo[1,2-a]pyridin-6-yl)-6-ethyl-2-pyridyl]-4-piperidyl]-5-oxa-2,8-diazaspiro[3.5]nonane]
- IC50 (human TLR7): 6.2 nM
- IC50 (human TLR8): 15.7 nM
- IC50 (TLR9): 111 nM
- Clearance of Human microsome [1]: 9.54 mL/min/kg

SMILES: CCc1nc(N2CCN(C(=O)C3CNCCO3)CC2)ccc1-c1cc(C)c2nc(C)cn2c1 (centres unmarked) [Example 18, [4-[5-(2,8-dimethylimidazo[1,2-a]pyridin-6-yl)-6-ethyl-2-pyridyl]piperazin-1-yl]-morpholin-2-yl-methanone]
- IC50 (human TLR7): 22.4 nM
- IC50 (human TLR8): 28.8 nM
- IC50 (TLR9): 255 nM

SMILES: CO[C@@H]1CN(C2CCN(c3ccc(-c4cc(C)c5nccn5c4)c(N(C)C)n3)CC2)C[C@H]1N [Example 24, 6-[4-[(3R,4R)-3-amino-4-methoxy-pyrrolidin-1-yl]-1-piperidyl]-N,N-dimethyl-3-(8-methylimidazo[1,2-a]pyridin-6-yl)pyridin-2-amine]
- IC50 (human TLR7): 20.1 nM
- IC50 (human TLR8): 4 nM
- IC50 (TLR9): 107 nM
